From ChEMBL document CHEMBL1833866, “Synthesis and evaluation of 1-(4-[¹⁸F]fluoroethyl)-7-(4'-methyl)curcumin with improved brain permeability for β-amyloid plaque imaging” (Bioorg Med Chem Lett, 2011)
Activity calls are given as the source filed them. No cut-off for these calls is given here.

How the values were obtained:
[1] = Binding affinity to amyloid beta (1 to 42) after 3 hrs using [125I]IMSB by gamma counter method
[2] = Octanol-water partition coefficient, log P of the compound by TLC analysis; type: physicochemical
Femur [3] = assay: Biodistribution in ICR mouse Femur at 1.11 MBq, iv after 30 mins; type: ADME, organism-based; conditions: in vivo, 0.5 h
Heart [4] = assay: Biodistribution in ICR mouse heart at 1.11 MBq, iv after 2 mins; type: ADME, organism-based; conditions: in vivo
Spleen [5] = assay: Biodistribution in ICR mouse Spleen at 1.11 MBq, iv after 2 mins; type: ADME, organism-based; conditions: in vivo
Muscle tissue [6] = assay: Biodistribution in ICR mouse Muscle at 1.11 MBq, iv after 60 mins; type: ADME, organism-based; conditions: in vivo, 1 h
Heart [7] = assay: Biodistribution in ICR mouse heart at 1.11 MBq, iv after 30 mins; type: ADME, organism-based; conditions: in vivo, 0.5 h
Femur [8] = assay: Biodistribution in ICR mouse Femur at 1.11 MBq, iv after 60 mins; type: ADME, organism-based; conditions: in vivo, 1 h
Kidney [9] = assay: Biodistribution in ICR mouse Kidney at 1.11 MBq, iv after 30 mins; type: ADME, organism-based; conditions: in vivo, 0.5 h
Spleen [10] = assay: Biodistribution in ICR mouse Spleen at 1.11 MBq, iv after 120 mins; type: ADME, organism-based; conditions: in vivo, 2 h
Muscle tissue [11] = assay: Biodistribution in ICR mouse Muscle at 1.11 MBq, iv after 30 mins; type: ADME, organism-based; conditions: in vivo, 0.5 h
Lung [12] = assay: Biodistribution in ICR mouse Lung at 1.11 MBq, iv after 120 mins; type: ADME, organism-based; conditions: in vivo, 2 h
Muscle tissue [13] = assay: Biodistribution in ICR mouse Muscle at 1.11 MBq, iv after 120 mins; type: ADME, organism-based; conditions: in vivo, 2 h
Brain [14] = assay: Biodistribution in ICR mouse Brain at 1.11 MBq, iv after 60 mins; type: ADME, organism-based; conditions: in vivo, 1 h
Femur [15] = assay: Biodistribution in ICR mouse Femur at 1.11 MBq, iv after 120 mins; type: ADME, organism-based; conditions: in vivo, 2 h
Blood [16] = assay: Biodistribution in ICR mouse blood at 1.11 MBq, iv after 60 mins; type: ADME, organism-based; conditions: in vivo, 1 h
Muscle tissue [17] = assay: Biodistribution in ICR mouse Muscle at 1.11 MBq, iv after 2 mins; type: ADME, organism-based; conditions: in vivo
Heart [18] = assay: Biodistribution in ICR mouse heart at 1.11 MBq, iv after 120 mins; type: ADME, organism-based; conditions: in vivo, 2 h
Spleen [19] = assay: Biodistribution in ICR mouse Spleen at 1.11 MBq, iv after 30 mins; type: ADME, organism-based; conditions: in vivo, 0.5 h
Liver [20] = assay: Biodistribution in ICR mouse Liver at 1.11 MBq, iv after 120 mins; type: ADME, organism-based; conditions: in vivo, 2 h
Lung [21] = assay: Biodistribution in ICR mouse Lung at 1.11 MBq, iv after 60 mins; type: ADME, organism-based; conditions: in vivo, 1 h
Liver [22] = assay: Biodistribution in ICR mouse Liver at 1.11 MBq, iv after 60 mins; type: ADME, organism-based; conditions: in vivo, 1 h
Kidney [23] = assay: Biodistribution in ICR mouse Kidney at 1.11 MBq, iv after 120 mins; type: ADME, organism-based; conditions: in vivo, 2 h
Kidney [24] = assay: Biodistribution in ICR mouse Kidney at 1.11 MBq, iv after 60 mins; type: ADME, organism-based; conditions: in vivo, 1 h
Liver [25] = assay: Biodistribution in ICR mouse Liver at 1.11 MBq, iv after 2 mins; type: ADME, organism-based; conditions: in vivo
Blood [26] = assay: Biodistribution in ICR mouse blood at 1.11 MBq, iv after 120 mins; type: ADME, organism-based; conditions: in vivo, 2 h
Femur [27] = assay: Biodistribution in ICR mouse Femur at 1.11 MBq, iv after 2 mins; type: ADME, organism-based; conditions: in vivo
Brain [28] = assay: Biodistribution in ICR mouse Brain at 1.11 MBq, iv after 2 mins; type: ADME, organism-based; conditions: in vivo
Brain [29] = assay: Biodistribution in ICR mouse Brain at 1.11 MBq, iv after 120 mins; type: ADME, organism-based; conditions: in vivo, 2 h
Lung [30] = assay: Biodistribution in ICR mouse Lung at 1.11 MBq, iv after 30 mins; type: ADME, organism-based; conditions: in vivo, 0.5 h
Brain [31] = assay: Biodistribution in ICR mouse Brain at 1.11 MBq, iv after 30 mins; type: ADME, organism-based; conditions: in vivo, 0.5 h
Kidney [32] = assay: Biodistribution in ICR mouse Kidney at 1.11 MBq, iv after 2 mins; type: ADME, organism-based; conditions: in vivo
Spleen [33] = assay: Biodistribution in ICR mouse Spleen at 1.11 MBq, iv after 60 mins; type: ADME, organism-based; conditions: in vivo, 1 h
Liver [34] = assay: Biodistribution in ICR mouse Liver at 1.11 MBq, iv after 30 mins; type: ADME, organism-based; conditions: in vivo, 0.5 h
Lung [35] = assay: Biodistribution in ICR mouse Lung at 1.11 MBq, iv after 2 mins; type: ADME, organism-based; conditions: in vivo
Blood [36] = assay: Biodistribution in ICR mouse blood at 1.11 MBq, iv after 2 mins; type: ADME, organism-based; conditions: in vivo
Heart [37] = assay: Biodistribution in ICR mouse heart at 1.11 MBq, iv after 60 mins; type: ADME, organism-based; conditions: in vivo, 1 h
Blood [38] = assay: Biodistribution in ICR mouse blood at 1.11 MBq, iv after 30 mins; type: ADME, organism-based; conditions: in vivo, 0.5 h
Mus musculus [39] = assay: In vivo binding affinity to amyloid beta (1 to 42) in double transgenic APP/PS-1 mouse brain at 100 uM after 30 mins by microscopy; type: functional, organism-based
Mus musculus [40] = assay: In vivo binding affinity to amyloid beta (1 to 42) in wild type mouse brain at 100 uM after 30 mins by microscopy; type: functional, organism-based
[41] = Binding affinity to amyloid beta (1 to 40) after 3 hrs using [125I]IMSB by gamma counter method
[42] = Ratio of drug uptake in hippocampus to cerebellum in transgenic Tg2576 mouse brain; conditions: in vivo

For COc1ccc(/C=C/C(=O)/C=C(O)/C=C/c2ccc(OCCCF)c(OC)c2)cc1OC, the Ki [1] was 2.69 nM.
Work on COc1ccc(/C=C/c2ccc(/C=C/c3ccc(OC)c(C(=O)O)c3)c([125I])c2)cc1C(=O)O yielded a Kd [1] of 1.19 nM.
Work on COc1ccc(/C=C/C(=O)/C=C(O)/C=C/c2ccc(OCC[18F])c(OC)c2)cc1OC yielded a logP [2] of 2.4, a Drug uptake (Femur [3]) of 1.08 % ID/g and a Drug uptake (Heart [4]) of 7.18 % ID/g. It also gave a Drug uptake (Spleen [5]) of 16.41 % ID/g, a Drug uptake (Muscle tissue [6]) of 0.47 % ID/g and a Drug uptake (Heart [7]) of 1.68 % ID/g. The Drug uptake (Femur [8]) was 1 % ID/g, the Drug uptake (Kidney [9]) was 4.01 % ID/g and the Drug uptake (Spleen [10]) was 8.08 % ID/g. The Drug uptake (Muscle tissue [11]) was 0.76 % ID/g, the Drug uptake (Lung [12]) was 2.19 % ID/g and the Drug uptake (Muscle tissue [13]) was 0.37 % ID/g. It also gave a Drug uptake (Brain [14]) of 0.43 % ID/g, a Drug uptake (Femur [15]) of 1.62 % ID/g and a Drug uptake (Blood [16]) of 0.89 % ID/g. It also gave a Drug uptake (Muscle tissue [17]) of 0.89 % ID/g, a Drug uptake (Heart [18]) of 1.54 % ID/g and a Drug uptake (Spleen [19]) of 20.8 % ID/g. It also gave a Drug uptake (Liver [20]) of 12.51 % ID/g, a Drug uptake (Lung [21]) of 2.27 % ID/g and a Drug uptake (Liver [22]) of 26.83 % ID/g. The Drug uptake (Kidney [23]) was 1.42 % ID/g, the Drug uptake (Kidney [24]) was 2.25 % ID/g and the Drug uptake (Liver [25]) was 38.83 % ID/g. The Drug uptake (Blood [26]) was 0.67 % ID/g, the Drug uptake (Femur [27]) was 1.86 % ID/g and the Drug uptake (Brain [28]) was 1.44 % ID/g. It also gave a Drug uptake (Brain [29]) of 0.29 % ID/g, a Drug uptake (Lung [30]) of 3.94 % ID/g and a Drug uptake (Brain [31]) of 0.45 % ID/g. For the same compound, the Drug uptake (Kidney [32]) was 10.95 % ID/g, the Drug uptake (Spleen [33]) was 10.59 % ID/g and the Drug uptake (Liver [34]) was 43.02 % ID/g. For the same compound, the Drug uptake (Lung [35]) was 23.78 % ID/g, the Drug uptake (Blood [36]) was 9.76 % ID/g and the Drug uptake (Heart [37]) was 1.3 % ID/g. The Drug uptake (Blood [38]) was 1.26 % ID/g.
Work on O=C(O)c1cc(/N=N/c2ccc(-c3ccc(/N=N/c4ccc(O)c(C(=O)O)c4)cc3)cc2)ccc1O [CHRYSAMINE G] yielded a Ki [1] of 0.43 nM.
COc1cc(/C=C/C(=O)/C=C(O)/C=C/c2ccc(OCCOCCF)c(OC)c2)ccc1O showed a Ki [1] of 4.65 nM.
COc1ccc(/C=C/C(=O)/C=C(O)/C=C/c2ccc(OCCOCCF)c(OC)c2)cc1OC showed a Ki [1] of 3.01 nM.
With [11CH3]Nc1ccc(-c2nc3ccc(O)cc3s2)cn1 the Ki [1] was 1.7 nM.
In the case of COc1ccc(/C=C/C(=O)/C=C(O)/C=C/c2ccc(OCCF)c(OC)c2)cc1OC, the Activity (Mus musculus [39]) is reported as “Active”, the Ki [1] is reported as 2.12 nM and the Activity (Mus musculus [40]) is reported as “inactive”.
In the case of COc1cc(/C=C/C(=O)/C=C(O)/C=C/c2ccc(OCCOCCOCCF)c(OC)c2)ccc1O, the Ki [1] is reported as 4.44 nM.
With COc1cc(/C=C/C(O)=C/C(=O)/C=C/c2ccc(OCCC[18F])c(OC)c2)ccc1O the Ki [41] was 0.07 nM and the Ratio [42] was 3.
With COc1cc(/C=C/C(=O)CC(=O)/C=C/c2ccc(O)c(OC)c2)ccc1O [CURCUMIN] the Ki [1] was 3.57 nM.
